Test results from BindingDB's records for doi:10.1016/j.bmcl.2004.01.047 (University of Huddersfield, 2004).

Assay: Binding affinity against metallo-beta-lactamase bacillus cereus(BCII)

Q: For `CC1CS[C@H](c2nc(O)c(-c3ccccc3)[nH]c2=S)NC1C(=O)O` (stereo partly drawn) [(R)-5-Methyl-2-(6-oxo-5-phenyl-3-thioxo-piperazin-2-yl)-3,6-dihydro-2H-[1,3]thiazine-4-carboxylic acid anion], which Ki is on record?
A: The Ki was 29 µM.
